This note sets out measurements from patent US20190167771A1, “CONTROL ANGIOGENESIS BY REGULATING PHOSPHORYLATION OF SERYL-tRNA SYNTHETASE (SerRS)” (The Scripps Research Institute, priority 2016, published 2019).

This assay deals with MDA-MB-231 cells. Put plainly: MDA-MB-231 tumor xenograft model, tumor angiogenesis and growth. Type of assay: in vivo, mouse. The settings on record: for tumor angiogenesis (CD31 staining): MDA-MB-231 stably transfected with human SerRS gene (~10-fold overexpression), NSG mice, two weeks. The text has this: In FIG. 5A, human breast cancer cells MDA-MB-231 were stably transfected with human wild type (SerRS^WT) and mutant SerRS (SerRS^AA, SerRS^DD). The expression of SerRS was monitored by immunoblot. In FIGS. 5B-C, the engineered MDA-MB-231 cells (10^6 per mouse) were implanted into mouse fat pad in mammal glands to form tumor xenografts. 14 days later, tumor xenografts were excised and subjected to immunohistochemistry for CD31 (FIG. 5B) and subsequent quantification of blood vessels (FIG. 5C) (n=5-6). In FIGS. 5D-F, MDA-MB-231 cells (10^6 per mouse) stably transfected with SerRS^WT, SerRS^AA, HIF1-specific shRNA (HIF^KD), both SerRS^AA and HIF^KD or empty vector were implanted into mouse fat pad in mammal glands. The sizes of the tumor xenografts were measured until the mice were sacrificed on 35 days (FIG. 5D) and the tumor angiogenesis was measured by immunohistochemistry for CD31 (FIG. 5E) and VEGFA (FIG. 5F) (n=4-10). Scale bars represent 100 μm.
[…] MDA-MB-231 cells stably transfected with vectors expressing wild type human SerRS, SerRS^S101A/S241A, or SerRS^S101D/S241D were subcutaneously injected into the mammal glands of 6-8-week-old female NOD.Cg-Prkdc^scidIl2rg^tmJWjl/SzJ mice (six mice in each group) (Jackson Laboratory). 14 days after injection, the tumor xenograft were separated from mice and frozen in Tissue-Tek® OCT compound for cryostat sectioning.
5-μm sections from freshly frozen tumor xenograft and matrigel plugs were treated with acetone and 3% H2O2 to block endogenous peroxidase. After 3-5 times wash and goat serum block, the sections were incubated with an anti-CD31 antibody (1:3000; Cell Signaling Technology) overnight at 4° C. The blood vessels were counted in 5-10 random viable fields (120×) in tumor xenograft samples and microvessel density in matrigel plugs was quantified by measuring the CD31 staining density using Image J software. To detect the hypoxia, we incubated the slides with anti-HIF1α antibody (1:100; Novus Biologicals).
This example describes experiments studying the activity of SerRS^S101A/S241A and the effect of SerRS phosphorylation in hypoxia-induced angiogenesis in mammal.
Because hypoxia-induced angiogenesis is critical for solid tumor growth, experiments were performed to determine if hypoxia-induced SerRS phosphorylation/inactivation is important for tumor angiogenesis. Human breast cancer cells MDA-MB-231 were stably transfected with human SerRS^WT, SerRS^S101A/S241A, or SerRS^S101D/S241D gene to give high levels of overexpression (˜10-fold) compare to that of the endogenous protein (FIG. 4D). The engineered cells were implanted subcutaneously into the mammal glands of immune deficient NOD scid gamma (NSG) mice. Two weeks later, the vasculature in the tumor xenografts were examined by CD31 staining (FIGS. 4E and 4F). […]

Take “SerRS^S101A/S241A: phosphorylation-deficient human SerRS double mutant, serine 101 and 241 to alanine, SEQ ID NO: 4 (mouse version in matrigel assay)”: the “tumor angiogenesis (CD31 staining)” value was “much stronger inhibition of angiogenesis compared to SerRS^WT”. The “angiogenesis and tumor growth compared with HIF-1 knockdown” value (murine model of triple negative human breast cancer, overexpression) was “suppress angiogenesis and tumor growth much more robustly than the knockdown of HIF-1”.
In the case of “SerRS^WT: wildtype human seryl-tRNA synthetase protein, SEQ ID NO: 1 (mouse wild type used in the 3B11 matrigel assay)”, the “tumor angiogenesis (CD31 staining)” value was “suppressed tumor angiogenesis”.
Same read-out and setting: next, “SerRS^S101D/S241D: SerRS with double substitutions of S101 and S241 with aspartic acid, mimics the phosphorylated SerRS”: “strong activity in promoting tumor angiogenesis”.
